pIC50: −log10 of the molar value. Activity calls are given as the source filed them. No cut-off for these calls is given here.
What was measured:
[1] = test system: HeLa; assay: Antiproliferative activity against human HeLa cells after 48 hrs by MTT assay; format: functional, cell-based
[2] = test system: HepG2; assay: Antiproliferative activity against human HepG2 cells after 48 hrs by MTT assay; format: functional, cell-based; conditions: HepG2, 48 h
[3] = test system: A549; assay: Antiproliferative activity against human A549 cells after 48 hrs by MTT assay; format: functional, cell-based; conditions: A549, 48 h
[4] = test system: NCI-H460; assay: Antiproliferative activity against human NCI-H460 cells after 48 by hrs MTT assay; format: functional, cell-based
[5] = test system: HL-60; assay: Antiproliferative activity against human HL60 cells after 48 hrs by MTT assay; format: functional, cell-based; conditions: HL-60, 48 h
[6] = test system: K562; assay: Antiproliferative activity against human K562 cells after 48 hrs by MTT assay; format: functional, cell-based; conditions: K562, 48 h
[7] = test system: WI-38; assay: Antiproliferative activity against human WI38 cells after 48 hrs by MTT assay; format: cell-based; conditions: WI-38, 48 h
[8] = Selectivity index, ratio of IC50 for human WI38 cells to IC50 for human HL60 cells; format: toxicity; conditions: WI38 cells and HL60 cells, read-out: Ratio IC50
[9] = test system: HL-60; assay: Induction of ROS generation in human HL60 cells after 6 hrs by DCFH-DA staining-based fluorescence microscopic analysis; format: functional, cell-based
[10] = test system: HL-60; assay: Induction of ROS generation in human HL60 cells at 4 uM incubated for 6 hrs starting from 1 hr post antioxidant NAC addition by DCFH-DA staining-based fluorescence microscopic analysis; format: functional, cell-based
[11] = test system: HL-60; assay: Induction of apoptosis in human HL60 cells assessed as condensed nuclei formation after 24 hrs by Hoechst-33342 staining-based fluorescence microscopic analysis; format: functional, cell-based
[12] = test system: HL-60; assay: Induction of apoptosis in human HL60 cells assessed as nuclear fragmentation after 24 hrs by Hoechst-33342 staining-based fluorescence microscopic analysis; format: functional, cell-based
[13] = test system: HL-60; assay: Induction of apoptosis in human HL60 cells assessed as early apoptotic cells at 1 uM after 48 hrs by Annexin V-FITC/propidium iodide staining based flow cytometry (reference value: 3.13%); format: functional
[14] = test system: HL-60; assay: Induction of apoptosis in human HL60 cells assessed as late apoptotic cells at 1 uM after 48 hrs by Annexin V-FITC/propidium iodide staining based flow cytometry (reference value: 1.23%); format: functional
[15] = test system: HL-60; assay: Induction of apoptosis in human HL60 cells assessed as early apoptotic cells at 2 uM after 48 hrs by Annexin V-FITC/propidium iodide staining based flow cytometry (reference value: 3.13%); format: functional
[16] = test system: HL-60; assay: Induction of apoptosis in human HL60 cells assessed as late apoptotic cells at 2 uM after 48 hrs by Annexin V-FITC/propidium iodide staining based flow cytometry (reference value: 1.23%); format: functional
[17] = test system: HL-60; assay: Induction of apoptosis in human HL60 cells assessed as early apoptotic cells at 4 uM after 48 hrs by Annexin V-FITC/propidium iodide staining based flow cytometry (reference value: 3.13%); format: functional
[18] = test system: HL-60; assay: Induction of apoptosis in human HL60 cells assessed as late apoptotic cells at 4 uM after 48 hrs by Annexin V-FITC/propidium iodide staining based flow cytometry (reference value: 1.23%); format: functional
[19] = test system: HL-60; assay: Induction of apoptosis in human HL60 cells assessed as late apoptotic cells at 4 uM incubated for 48 hrs starting from 1 hr post antioxidant NAC addition by Annexin V-FITC/propidium iodide staining based flow cytometry (reference value: 1.23%); format: functional
[20] = test system: HL-60; assay: Induction of apoptosis in human HL60 cells assessed as early apoptotic cells at 4 uM incubated for 48 hrs starting from 1 hr post antioxidant NAC addition by Annexin V-FITC/propidium iodide staining based flow cytometry (reference value: 3.13%); format: functional
[21] = test system: HL-60; assay: Induction of apoptosis in human HL60 cells assessed as early apoptotic cells after 48 hrs by Annexin V-FITC/propidium iodide staining based flow cytometry; format: functional, cell-based
[22] = test system: HL-60; assay: Induction of apoptosis in human HL60 cells assessed as late apoptotic cells after 48 hrs by Annexin V-FITC/propidium iodide staining based flow cytometry; format: functional, cell-based
[23] = test system: HL-60; assay: Induction of apoptosis in human HL60 cells assessed as necrotic cells after 48 hrs by Annexin V-FITC/propidium iodide staining based flow cytometry; format: functional, cell-based
[24] = test system: HL-60; assay: Cell cycle arrest in human HL60 cells assessed as accumulation at G0/G1 phase at 1 uM after 48 hrs by propidium iodide staining based assay (reference value: 50.88%); format: functional
[25] = test system: HL-60; assay: Cell cycle arrest in human HL60 cells assessed as accumulation at S phase at 1 uM after 48 hrs by propidium iodide staining based assay (reference value: 46.44%); format: functional
[26] = test system: HL-60; assay: Cell cycle arrest in human HL60 cells assessed as accumulation at G2/M phase at 1 uM after 48 hrs by propidium iodide staining based assay (reference value: 2.68%); format: functional
[27] = test system: HL-60; assay: Cell cycle arrest in human HL60 cells assessed as accumulation at G0/G1 phase at 2 uM after 48 hrs by propidium iodide staining based assay (reference value: 50.88%); format: functional
[28] = test system: HL-60; assay: Cell cycle arrest in human HL60 cells assessed as accumulation at S phase at 2 uM after 48 hrs by propidium iodide staining based assay (reference value: 46.44%); format: functional
[29] = test system: HL-60; assay: Cell cycle arrest in human HL60 cells assessed as accumulation at G2/M phase at 2 uM after 48 hrs by propidium iodide staining based assay (reference value: 2.68%); format: functional
[30] = test system: HL-60; assay: Cell cycle arrest in human HL60 cells assessed as accumulation at G0/G1 phase at 4 uM after 48 hrs by propidium iodide staining based assay (reference value: 50.88%); format: functional
[31] = test system: HL-60; assay: Cell cycle arrest in human HL60 cells assessed as accumulation at S phase at 4 uM after 48 hrs by propidium iodide staining based assay (reference value: 46.44%); format: functional
[32] = test system: HL-60; assay: Cell cycle arrest in human HL60 cells assessed as accumulation at G2/M phase at 4 uM after 48 hrs by propidium iodide staining based assay (reference value: 2.68%); format: functional
[33] = test system: HL-60; assay: Cell cycle arrest in human HL60 cells assessed as accumulation at G0/G1 phase at 4 uM incubated for 48 hrs starting from 1 hr post antioxidant NAC addition by propidium iodide staining based assay (reference value: 50.88%); format: functional
[34] = test system: HL-60; assay: Cell cycle arrest in human HL60 cells assessed as accumulation at S phase at 4 uM incubated for 48 hrs starting from 1 hr post antioxidant NAC addition by propidium iodide staining based assay (reference value: 46.44%); format: functional
[35] = test system: HL-60; assay: Cell cycle arrest in human HL60 cells assessed as accumulation at G2/M phase at 4 uM incubated for 48 hrs starting from 1 hr post antioxidant NAC addition by propidium iodide staining based assay (reference value: 2.68%); format: functional
[36] = test system: HL-60; assay: Induction of apoptosis in human HL60 cells assessed as condensed nuclei formation at 4 uM preincubated for 1 hr with antioxidant NAC measured after 24 hrs by Hoechst-33342 staining-based fluorescence microscopic analysis; format: functional, cell-based
[37] = test system: HL-60; assay: Induction of apoptosis in human HL60 cells assessed as nuclear fragmentation at 4 uM preincubated for 1 hr with antioxidant NAC measured after 24 hrs by Hoechst-33342 staining-based fluorescence microscopic analysis; format: functional, cell-based
[38] = Selectivity ratio of IC50 for human K562 cells to IC50 for human HL60 cells; format: functional
[39] = Redox potential of the compound in pH 7.4 PBS buffer assessed as reduction potential at 0.4 mM by cyclic voltametry; format: physicochemical; conditions: pH 7.4, 400 µM
[40] = Redox potential of the compound in pH 7.4 PBS buffer assessed as oxidation potential at 0.4 mM by cyclic voltametry; format: physicochemical; conditions: pH 7.4, 400 µM
[41] = Redox potential of the compound in pH 7.4 PBS buffer assessed as half wave potential at 0.4 mM by cyclic voltametry; format: physicochemical; conditions: pH 7.4, 400 µM

CCCCC1=C(Cl)C(=O)c2cc(OC)cc(OC)c2C1=O
pIC50 [1]: 4.65 | pIC50 [2]: 4.64 | pIC50 [3]: 4.62 | pIC50 [4]: 4.41 | pIC50 [5]: 5.42 | pIC50 [6]: 4.49 | pIC50 [7]: 4.39 | selectivity ratio [8]: 10.7 | Activity [9]: Dose-dependent effect | Activity [10]: inactive | Activity [11]: Dose-dependent effect | Activity [12]: Dose-dependent effect | Activity [13]: 4.48% | Activity [14]: 14.9% | Activity [15]: 7.35% | Activity [16]: 20.9% | Activity [17]: 26.6% | Activity [18]: 40.4% | Activity [19]: 6.78% | Activity [20]: 2.08% | Activity [21]: Dose-dependent effect | Activity [22]: Dose-dependent effect | Activity [23]: Dose-dependent effect | Activity [24]: 35.72% | Activity [25]: 51.13% | Activity [26]: 13.15% | Activity [27]: 34.89% | Activity [28]: 47.42% | Activity [29]: 17.69% | Activity [30]: 18.18% | Activity [31]: 49.89% | Activity [32]: 31.93% | Activity [33]: 48.52% | Activity [34]: 43.67% | Activity [35]: 7.8% | Activity [36]: Active | Activity [37]: Active | Ratio IC50 [38]: 8 | Activity [39]: -0.235 V | Activity [40]: -0.169 V | Activity [41]: -0.202 V

— ChEMBL document CHEMBL4184120, “Target ROS to induce apoptosis and cell cycle arrest by 5,7-dimethoxy-1,4-naphthoquinone derivative” (Bioorg Med Chem Lett, 2018)
